Experimental data from paper PMC9322122, “Development of (4-Phenylamino)quinazoline Alkylthiourea Derivatives as Novel NF-κB Inhibitors” (Pharmaceuticals, 2022).
Like-named read-outs stand apart in the source and are kept apart here.

How the values were obtained:
[1] = system: NF-κB; test: NF-κB luciferase reporter assay; format: cell-based; conditions: Homo sapiens, NF-κB-luciferase-transfected HEK293 cells, TNFα 50 ng/mL; for inhibition at 10 µM: mean ± SEM, n = 3, read-out: NF-κB Luciferase Activity Inh %
Description: NF-κB Luciferase Reporter Vector was purchased from Signosis (Santa Clara, CA, USA) and transfected into HEK-293 cells using FuGENE HD (Promega, Fitchburg, MA, USA) following the manufacturer’s protocol. The transfected cells were incubated in serum-free DMEM for 16 h and then treated with DMSO or indicated compounds. After 3 h, cells were treated with or without 50 ng/mL of Recombinant Human TNFα Protein (R&D systems, Minneapolis, MN, USA) for another 3 h. The protein lysates were analyzed using Steady-Glo® Luciferase Assay System (Promega, Fitchburg, MA, USA) and TECAN Infinite 200 pro (Männedorf, Switzerland).

[2] = Cell viability (WST-1), HEK293; format: cell-based; conditions: human, HEK293 cells, mean ± SEM, n = 3
Description: (§1) Cells were incubated with the WST-1 reagent (Thermo Fisher Scientific, Waltham, MA, USA) at 37 °C for 2 h. The cell viability was determined by spectrophotometer at 450 nm.

[3] = Cell viability (WST-1), A549; format: cell-based; conditions: human, A549 cells, mean ± SEM, n = 3
Description: as §1

[4] = system: NF-κB; set-up: method as in PMID 28291344; conditions: cell-based activity reporter assay; cited from earlier work
[5] = system: IKKα; conditions: read-out: cell-free IC50 IKKα; cited from earlier work
[6] = system: TNFα production; conditions: THP-1 macrophage model cell line; read-out: IC50 for suppression of TNFα production; cited from earlier work
[7] = system: IKKβ; conditions: read-out: cell-free IC50 IKKβ; cited from earlier work
[8] = system: IL-1β production; conditions: THP-1 macrophage model cell line; read-out: IC50 for suppression of IL-1β production; cited from earlier work
[9] = system: TNFα; conditions: cited from earlier work
[10] = molecular target: EGFR kinase; set-up: method as in PMID 28291344; conditions: cell-free kinase assay at 100 µM ATP; cited from earlier work
[11] = system: dTHP−1 cells; test: Cell viability of dTHP-1 cells with or without LPS; format: cell-based, human; conditions: in % (unit assumed); for Cell viability of dTHP-1 cells, 5 μM, LPS / Cell viability of dTHP-1 cells, 5 μM, without LPS: 5 μM (so in the source)
Description: (§2) The HEK-293 (ATCC Cat# CRL-1573, RRID:CVCL_0045) and human monocytic THP−1 cells (ATCC Cat# TIB-202, RRID:CVCL_0006) were, respectively, cultured in DMEM and RPMI 1640 media supplemented with 10% fetal bovine serum, 2 mM L-glutamine, and 1× Antibiotic-Antimycotic at 37 °C in a humidified incubator with 5% CO2. THP−1 cells were differentiated by 100 nM phorbol-12-myristate-13-acetate (PMA) for 4 h and then rested for 44 h as dTHP−1 cells.
as §1
(§3) The dTHP−1 cells were treated with indicated compounds for 3 h and then activated with or without 100 ng/mL lipopolysaccharide (LPS; E. coli 0111:B4) for another 24 h. The levels of human IL-6 and TNFα in supernatants were measured by DuoSet® ELISA Development System (R&D systems, Minneapolis, MN, USA) according to the manufacturer’s protocol.

[12] = system: TNFα production; test: TNFα production in LPS-activated dTHP-1 cells (ELISA); format: cell-based; conditions: Homo sapiens; for IC50: LPS-activated dTHP-1 cells, 24 h; for inhibition at 7.5 µM / inhibition at 15 µM: LPS 100 ng/mL for 24 h, dTHP-1 cells; for inhibition at 7.5 µM: read-out: TNFα Production Inh % (7.5 μM); for inhibition at 15 µM: read-out: TNFα Production Inh % (15 μM)
Description: as §2, §3

[13] = system: phospho-NF-κB p65 (S536); test: Western blot phospho-NF-κB p65 (S536) in dTHP-1 cells; format: cell-based, human; conditions: CAPE 10 µM; LPS-stimulated dTHP-1 cells
Description: Cells were lysed in the commercial RIPA Buffer (Thermo Fisher Scientific, Waltham, MA, USA) and then centrifuged at 14,000× g for 20 min. […] Antibodies used in this study were phospho-NF-κB p65 (S468; catalog no. 3039), phospho-NF-κB p65 (S536; catalog no. 3033), phospho-IKKα/β (catalog no. 2697), and IκB (catalog no. 9242) from Cell Signaling Technology (Beverly, MA, USA); GAPDH from ABclonal (catalog no. A10868; Woburn, MA, USA). The labeled signals were determined using an enhanced chemiluminescence system (UVP, Upland, CA, USA). The experiments were performed at least two times in triplicate, providing basically the same results.
The dTHP−1 cells were incubated with DMSO (0.1%), 19 (7.5 µM), or CAPE (10 µM) in medium for 3 h and then stimulated with or without LPS (0.1 µg/mL) for another 30 min. (A) The levels of phospho-NF-κB p65 (S536), phospho-IKKα/β, IκB, and GAPDH were determined by Western blot. The normalized (B) phospho-NF-κB p65 (S536), (C) phospho-IKKα/β, and (D) IκB levels were quantified. All data are expressed as mean ± SEM (n = 3); * p < 0.05 compared with the DMSO + LPS group.

[14] = system: IL-6 production; test: IL-6 production in LPS-activated dTHP-1 cells (ELISA); format: cell-based, human; conditions: Homo sapiens; for IC50: LPS-activated dTHP-1 cells, 24 h; for inhibition at 7.5 µM / inhibition at 15 µM: LPS 100 ng/mL for 24 h, dTHP-1 cells; for inhibition at 7.5 µM: read-out: IL-6 Production Inh % (7.5 μM); for inhibition at 15 µM: read-out: IL-6 Production Inh % (15 μM)
Description: as §2, §3

[15] = molecular target: Recombinant EGFR kinase (Homo sapiens, UniProt P00533); test: Recombinant EGFR kinase activity; format: biochemical; conditions: read-out: Recombinant EGFR Kinase Activity (%inh at 150 nM)
[16] = system: NF-κB p65 subunit; set-up: method as in PMID 28448872; conditions: covalent modification of the p65 subunit; read-out: IC50, interfering with the binding of NF-κB to its DNA recognition site; cited from earlier work
[17] = system: 26S proteasome; set-up: method as in PMID 20420526; conditions: read-out: IC50, inhibition of the activity of the 26S proteasome; cited from earlier work
[18] = system: IKKα/β; set-up: method as in PMID 10768472; conditions: read-out: IC50, targeting IKKα/β; cited from earlier work

Recombinant EGFR kinase, sequence (P00533 25-1210): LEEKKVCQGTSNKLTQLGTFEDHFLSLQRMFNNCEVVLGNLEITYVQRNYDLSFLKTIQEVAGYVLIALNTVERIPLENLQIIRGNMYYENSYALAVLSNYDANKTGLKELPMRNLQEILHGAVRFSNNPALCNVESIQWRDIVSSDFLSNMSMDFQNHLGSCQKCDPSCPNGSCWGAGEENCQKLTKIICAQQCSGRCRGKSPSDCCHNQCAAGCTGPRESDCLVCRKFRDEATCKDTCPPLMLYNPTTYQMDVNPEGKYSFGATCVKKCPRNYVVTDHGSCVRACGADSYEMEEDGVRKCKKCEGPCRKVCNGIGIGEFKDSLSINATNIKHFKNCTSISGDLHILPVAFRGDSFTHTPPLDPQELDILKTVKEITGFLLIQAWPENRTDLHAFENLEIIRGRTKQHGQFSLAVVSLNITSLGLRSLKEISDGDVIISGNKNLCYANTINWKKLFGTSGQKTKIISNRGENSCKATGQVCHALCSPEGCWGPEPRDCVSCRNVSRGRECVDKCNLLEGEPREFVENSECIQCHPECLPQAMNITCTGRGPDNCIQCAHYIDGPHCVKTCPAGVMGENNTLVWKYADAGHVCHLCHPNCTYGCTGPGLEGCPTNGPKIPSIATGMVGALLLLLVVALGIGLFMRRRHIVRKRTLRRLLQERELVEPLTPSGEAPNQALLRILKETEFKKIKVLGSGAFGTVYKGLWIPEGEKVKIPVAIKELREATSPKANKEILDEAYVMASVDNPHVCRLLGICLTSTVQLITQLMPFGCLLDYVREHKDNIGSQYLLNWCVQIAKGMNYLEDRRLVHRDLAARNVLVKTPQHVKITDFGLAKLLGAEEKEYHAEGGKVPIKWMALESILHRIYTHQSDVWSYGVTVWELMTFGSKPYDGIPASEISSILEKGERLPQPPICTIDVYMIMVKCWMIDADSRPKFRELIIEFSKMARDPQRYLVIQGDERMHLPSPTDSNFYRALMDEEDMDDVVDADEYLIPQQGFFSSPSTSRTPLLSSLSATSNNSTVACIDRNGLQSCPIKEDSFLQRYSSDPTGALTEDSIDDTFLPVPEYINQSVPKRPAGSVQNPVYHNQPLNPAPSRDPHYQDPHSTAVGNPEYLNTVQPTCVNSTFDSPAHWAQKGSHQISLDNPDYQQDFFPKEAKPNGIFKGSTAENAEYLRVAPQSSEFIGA

## S=C(NCc1ccccc1)Nc1ccc2ncnc(Nc3cccc(Cl)c3)c2c1 [A, reference compound]
[1]
  inhibition at 10 µM: 94.6 ± 1.5%
  IC50: 0.79 µM
[2]
  viability at 10 µM: 72.4 ± 3.9%
[3]
  viability at 10 µM: 81.7 ± 1.2%
[4]
  IC50: 3.7 µM

## Cc1ccc2nc(NCCN)c3ncc(C)n3c2c1 [BMS-345541]
[5]
  IC50: 4 µM
[6]
  IC50: ~5 µM
[7]
  IC50: 0.3 µM
[8]
  IC50: ~5 µM
[9]
  inhibition of TNFα in mice after administration of LPS: effective in the inhibition of TNFα in mice

## S=C(NCc1ccccc1)Nc1ccc2ncnc(Nc3ccc(Br)cc3)c2c1 [B]
[10]
  IC50: > 0.15 µM
[4]
  IC50: 3.8 µM

## O=C(/C=C/c1ccc(O)c(O)c1)OCCc1ccccc1 [CAPE, caffeic acid phenethyl ester, reference compound]
[11]; CAPE 10 μM, LPS 100 ng/mL for 24 h
  Cell viability of dTHP-1 cells, 10 μM, LPS: 52.2 ± 9.7
[11]; CAPE 10 μM, no LPS
  Cell viability of dTHP-1 cells, 10 μM, without LPS: 97.8 ± 0.41
[12]
  IC50: 11.4 ± 0.21 µM
[13]
  Phosphorylation of p65 at Ser536: slight reduction in the p65 phosphorylation
[1]
  inhibition at 10 µM: 72.8%
[14]
  IC50: 1.1 ± 0.36 µM

## CC(C)(C)c1ccc(Nc2ncnc3ccc(NC(=S)NCc4ccccc4)cc23)cc1 [C]
[10]
  IC50: > 0.15 µM
[4]
  IC50: 5.5 µM

## S=C(Nc1ccc2ncnc(Nc3cccc(Cl)c3)c2c1)NC1CC1 [Compound 17, 1-(4-((3-Chlorophenyl)amino)quinazolin-6-yl)-3-cyclopropylthiourea]
[11]; LPS 100 ng/mL for 24 h
  Cell viability of dTHP-1 cells, 5 μM, LPS: 62.0 ± 3.4
[11]; no LPS
  Cell viability of dTHP-1 cells, 5 μM, without LPS: 84.5 ± 4.8
  Cell viability of dTHP-1 cells, 7.5 μM, without LPS: 94.3 ± 1.9
[15]
  inhibition at 0.15 µM: 36.5%
other
  melting point: 219.1 to 220.2 °C
[12]
  inhibition at 7.5 µM: 19 ± 8%
  inhibition at 15 µM: 62 ± 4.2%
  IC50: 12.3 ± 1 µM
[1]
  inhibition at 10 µM: 47 ± 5.3%
  IC50: > 10 µM
[2]
  viability at 10 µM: 103 ± 8.4%
[14]
  inhibition at 7.5 µM: 86 ± 2.3%
  inhibition at 15 µM: 95.8 ± 0.33%
  IC50: 0.72 ± 0.17 µM
[3]
  viability at 10 µM: 102.6 ± 0.2%

## S=C(NCC1CC1)Nc1ccc2ncnc(Nc3cccc(Cl)c3)c2c1 [Compound 18, 1-(4-((3-Chlorophenyl)amino)quinazolin-6-yl)-3-(cyclopropylmethyl)thiourea]
[11]; LPS 100 ng/mL for 24 h
  Cell viability of dTHP-1 cells, 5 μM, LPS: 11.2 ± 3.3
  Cell viability of dTHP-1 cells, 7.5 μM, LPS: 34.9 ± 1.6
[11]; no LPS
  Cell viability of dTHP-1 cells, 5 μM, without LPS: 87.6 ± 2.5
  Cell viability of dTHP-1 cells, 7.5 μM, without LPS: 82.7 ± 10.3
[15]
  inhibition at 0.15 µM: 59%
other
  melting point: 226.3 to 228 °C
[12]
  inhibition at 7.5 µM: 31 ± 4.5%
  inhibition at 15 µM: 65.9 ± 7.9%
  IC50: 11.5 ± 1.7 µM
[1]
  inhibition at 10 µM: 89.9 ± 1.5%
  IC50: 2.8 µM
[2]
  viability at 10 µM: 75.7 ± 3.8%
[14]
  inhibition at 7.5 µM: 78.9 ± 14.8%
  inhibition at 15 µM: 89.4 ± 7%
  IC50: 1.1 ± 0.36 µM
[3]
  viability at 10 µM: 79.1 ± 0.6%

## CC(C)(C)NC(=S)Nc1ccc2ncnc(Nc3cccc(Cl)c3)c2c1 [Compound 20, 1-(tert-Butyl)-3-(4-((3-chlorophenyl)amino)quinazolin-6-yl)thiourea]
[11]; LPS 100 ng/mL for 24 h
  Cell viability of dTHP-1 cells, 5 μM, LPS: 12.5 ± 0.23
  Cell viability of dTHP-1 cells, 7.5 μM, LPS: 32.5 ± 0.89
[11]; no LPS
  Cell viability of dTHP-1 cells, 5 μM, without LPS: 42.5 ± 10.6
  Cell viability of dTHP-1 cells, 7.5 μM, without LPS: 78.0 ± 0.09
[15]
  inhibition at 0.15 µM: 1.5%
other
  melting point: 177.5 to 179.4 °C
[12]
  inhibition at 7.5 µM: 57.4 ± 7.2%
  inhibition at 15 µM: 89.9 ± 0.88%
  IC50: 5.1 ± 0.43 µM
[1]
  inhibition at 10 µM: 75.7 ± 3.1%
  IC50: 2 µM
[2]
  viability at 10 µM: 99.7 ± 8%
[14]
  inhibition at 7.5 µM: 91.8 ± 3.5%
  inhibition at 15 µM: 98.7 ± 1.2%
  IC50: 0.94 ± 0.11 µM
[3]
  viability at 10 µM: 98.1 ± 3.1%

## C=C1C(=O)O[C@@H]2C[C@@H](C)[C@@H]3C=CC(=O)[C@@]3(C)[C@@H](O)[C@H]12 [helenalin]
[16]
  IC50: 5 µM

## C[C@@]12OC(=O)[C@]1([C@@H](O)[C@@H]1C=CCCC1)NC(=O)[C@@H]2CCCl [salinosporamide A]
[17]
  IC50: 0.0013 µM

## cacospongiolide B
[18]
  IC50: 0.26 µM
